{
  "source": "patent US20260262643A1",
  "about": "“HERBICIDAL BENZOXAZINES” (FMC CORPORATION, priority 2022, published 2026)",
  "key": {"[1]": {"system": "barnyardgrass", "experiment": "Test A preemergence", "format": "in vivo, Echinochloa crusgalli", "outline": "(§1)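 Weeds and crops in loam–sand blend were sprayed preemergence onto soil or postemergence at 2–10 cm (one- to two-leaf stage). Test chemicals were in a non-phytotoxic solvent with surfactant. After 10 days in the greenhouse, injury was rated visually against untreated controls on a 0 (no effect) to 100 (complete control) scale.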"}, "[2]": {"system": "foxtail, giant", "experiment": "Test A preemergence", "format": "in vivo, Setaria faberi", "outline": "as §1"}, "[3]": {"system": "kochia", "experiment": "Test A preemergence", "format": "in vivo, Bassia scoparia", "outline": "as §1"}, "[4]": {"system": "Pigweed, Redroot", "experiment": "Test A preemergence", "format": "in vivo, Amaranthus retroflexus", "outline": "as §1"}, "[5]": {"system": "ragweed", "experiment": "Test A preemergence", "format": "in vivo, Ambrosia artemisiifolia", "outline": "as §1"}, "[6]": {"system": "ryegrass, Italian", "experiment": "Test A preemergence", "format": "in vivo, Lolium multiflorum", "outline": "as §1"}, "[7]": {"system": "barnyardgrass", "experiment": "Test A postemergence", "format": "in vivo, Echinochloa crusgalli", "outline": "as §1"}, "[8]": {"system": "blackgrass", "experiment": "Test A postemergence", "format": "in vivo, Alopecurus myosuroides", "outline": "as §1"}, "[9]": {"system": "corn", "experiment": "Test A postemergence", "format": "in vivo, Zea mays", "outline": "as §1"}, "[10]": {"system": "foxtail, giant", "experiment": "Test A postemergence", "format": "in vivo, Setaria faberi", "outline": "as §1"}, "[11]": {"system": "kochia", "experiment": "Test A postemergence", "format": "in vivo, Bassia scoparia", "outline": "as §1"}, "[12]": {"system": "Pigweed, Redroot", "experiment": "Test A postemergence", "format": "in vivo, Amaranthus retroflexus", "outline": "as §1"}, "[13]": {"system": "ragweed", "experiment": "Test A postemergence", "format": "in vivo, Ambrosia artemisiifolia", "outline": "as §1"}, "[14]": {"system": "ryegrass, Italian", "experiment": "Test A postemergence", "format": "in vivo, Lolium multiflorum", "outline": "as §1"}, "[15]": {"system": "wheat", "experiment": "Test A postemergence", "format": "in vivo, Triticum aestivum", "outline": "as §1"}, "[16]": {"system": "galium", "experiment": "Test A postemergence", "format": "in vivo, Galium aparine", "outline": "as §1"}, "[17]": {"system": "barnyardgrass", "experiment": "Test B flooded paddy test", "format": "in vivo, Echinochloa crus-galli", "conditions": "250 g ai/ha, Flood, 13 days, 0 to 100 scale (0 no effect, 100 complete control)", "outline": "(§2)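 Species grown to 2-leaf stage; pots flooded 3 cm above soil and compound applied directly to paddy water, depth maintained throughout. After 13 days in greenhouse, plants visually rated against controls on 0–100 scale (0 no effect, 100 complete control); dash means no result.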"}, "[18]": {"system": "ducksalad", "experiment": "Test B flooded paddy test", "format": "in vivo, Heteranthera limosa", "conditions": "250 g ai/ha, Flood, 13 days, 0 to 100 scale (0 no effect, 100 complete control)", "outline": "as §2"}, "[19]": {"system": "rice", "experiment": "Test B flooded paddy test", "format": "in vivo, Oryza sativa", "conditions": "250 g ai/ha, Flood, 13 days, 0 to 100 scale (0 no effect, 100 complete control)", "outline": "as §2"}, "[20]": {"system": "sedge, umbrella", "experiment": "Test B flooded paddy test", "format": "in vivo, Cyperus difformis", "conditions": "250 g ai/ha, Flood, 13 days, 0 to 100 scale (0 no effect, 100 complete control)", "outline": "as §2"}, "[21]": {"conditions": "125 g ai/ha, visual injury after 10 days, 0 to 100 scale, 0 is no effect, 100 is complete control"}, "[22]": {"conditions": "500 g ai/ha, 0 to 100 scale (0 no effect, 100 complete control), 10 days"}, "[23]": {"conditions": "125 g ai/ha, postemergence, 10 days, visual injury, 0 to 100 scale (0 no effect, 100 complete control)"}, "[24]": {"conditions": "500 g ai/ha, Postemergence, 0 to 100 scale"}, "[25]": {"conditions": "1000 g ai/ha, 0 to 100 scale (0 no effect, 100 complete control), 10 days"}, "[26]": {"conditions": "1000 g ai/ha, Postemergence, 0 to 100 scale"}},
  "data": [
    {"smiles": "CCC1CN(C(=O)c2cccc(-n3cncn3)c2)c2cccc(Cl)c2O1", "note": "(racemic) [Compound 7]", "values": [
      {"measurement": "Plant response rating, Barnyardgrass", "setting": "[1]; [21]", "value": 0},
      {"measurement": "Plant response rating, Barnyardgrass", "setting": "[1]; [22]", "value": 0},
      {"measurement": "Plant response rating, Foxtail, Giant", "setting": "[2]; [21]", "value": 10},
      {"measurement": "Plant response rating, Foxtail, Giant", "setting": "[2]; [22]", "value": 80},
      {"measurement": "Plant response rating, Kochia", "setting": "[3]; [21]", "value": 40},
      {"measurement": "Plant response rating, Kochia", "setting": "[3]; [22]", "value": 80},
      {"measurement": "Plant response rating, Pigweed, Redroot", "setting": "[4]; [21]", "value": 0},
      {"measurement": "Plant response rating, Pigweed, Redroot", "setting": "[4]; [22]", "value": 40},
      {"measurement": "Plant response rating, Ragweed", "setting": "[5]; [21]", "value": 0},
      {"measurement": "Plant response rating, Ragweed", "setting": "[5]; [22]", "value": 0},
      {"measurement": "Plant response rating, Ryegrass, Italian", "setting": "[6]; [21]", "value": 50},
      {"measurement": "Plant response rating, Ryegrass, Italian", "setting": "[6]; [22]", "value": 50},
      {"measurement": "Plant response rating, Barnyardgrass", "setting": "[7]; [23]", "value": 10},
      {"measurement": "Plant response rating, Barnyardgrass", "setting": "[7]; [24]", "value": 20},
      {"measurement": "Plant response rating, Blackgrass", "setting": "[8]; [23]", "value": 0},
      {"measurement": "Plant response rating, Blackgrass", "setting": "[8]; [24]", "value": 30},
      {"measurement": "Plant response rating, Corn", "setting": "[9]; [23]", "value": 0},
      {"measurement": "Plant response rating, Corn", "setting": "[9]; [24]", "value": 0},
      {"measurement": "Plant response rating, Foxtail, Giant", "setting": "[10]; [23]", "value": 10},
      {"measurement": "Plant response rating, Foxtail, Giant", "setting": "[10]; [24]", "value": 20},
      {"measurement": "Plant response rating, Kochia", "setting": "[11]; [23]", "value": 0},
      {"measurement": "Plant response rating, Kochia", "setting": "[11]; [24]", "value": 20},
      {"measurement": "Plant response rating, Pigweed, Redroot", "setting": "[12]; [23]", "value": 0},
      {"measurement": "Plant response rating, Pigweed, Redroot", "setting": "[12]; [24]", "value": 30},
      {"measurement": "Plant response rating, Ragweed", "setting": "[13]; [23]", "value": 0},
      {"measurement": "Plant response rating, Ragweed", "setting": "[13]; [24]", "value": 0},
      {"measurement": "Plant response rating, Ryegrass, Italian", "setting": "[14]; [23]", "value": 0},
      {"measurement": "Plant response rating, Ryegrass, Italian", "setting": "[14]; [24]", "value": 0},
      {"measurement": "Plant response rating, Wheat", "setting": "[15]; [23]", "value": 30},
      {"measurement": "Plant response rating, Wheat", "setting": "[15]; [24]", "value": 40},
      {"measurement": "Plant response rating, Galium", "setting": "[16]; [23]", "value": 0},
      {"measurement": "Plant response rating, Galium", "setting": "[16]; [24]", "value": 60},
      {"measurement": "Plant response rating, Barnyardgrass", "setting": "[17]", "value": 0},
      {"measurement": "Plant response rating, Ducksalad", "setting": "[18]", "value": 0},
      {"measurement": "Plant response rating, Rice", "setting": "[19]", "value": 0},
      {"measurement": "Plant response rating, Sedge, Umbrella", "setting": "[20]", "value": 0}
    ]},
    {"smiles": "C[C@H]1CN(C(=O)c2cccc(-n3cncn3)c2)c2cccc(Cl)c2O1", "note": "[Compound 18, [(2S)-8-Chloro-2,3-dihydro-2-methyl-4H-1,4-benzoxazin-4-yl][3-(1H-1,2,4-triazol-1-yl)phenyl]methanone]", "values": [
      {"measurement": "Plant response rating, Barnyardgrass", "setting": "[1]; [25]", "value": 90},
      {"measurement": "pest or weed control at 1000 g/ha", "setting": "[2]; Setaria faberi, pre-emergence, 240 h, 1000 g ai/ha, 0 to 100 scale (0 no effect, 100 complete control), 10 days, read-out: Plant response rating, Foxtail, Giant", "value": 100, "unit": "%"},
      {"measurement": "pest or weed control at 1000 g/ha", "setting": "[3]; Bassia scoparia, pre-emergence, 240 h, 1000 g ai/ha, 0 to 100 scale (0 no effect, 100 complete control), 10 days, read-out: Plant response rating, Kochia", "value": 70, "unit": "%"},
      {"measurement": "Plant response rating, Pigweed, Redroot", "setting": "[4]; [25]", "value": 100},
      {"measurement": "pest or weed control at 1000 g/ha", "setting": "[5]; Ambrosia artemisiifolia, pre-emergence, 240 h, 1000 g ai/ha, 0 to 100 scale (0 no effect, 100 complete control), 10 days, read-out: Plant response rating, Ragweed", "value": 80, "unit": "%"},
      {"measurement": "pest or weed control at 1000 g/ha", "setting": "[6]; Lolium multiflorum, pre-emergence, 240 h, 1000 g ai/ha, 0 to 100 scale (0 no effect, 100 complete control), 10 days, read-out: Plant response rating, Ryegrass, Italian", "value": 90, "unit": "%"},
      {"measurement": "Plant response rating, Barnyardgrass", "setting": "[7]; [26]", "value": 70},
      {"measurement": "pest or weed control at 1000 g/ha", "setting": "[8]; Alopecurus myosuroides, post-emergence, 240 h, 1000 g ai/ha, Postemergence, 0 to 100 scale, read-out: Plant response rating, Blackgrass", "value": 70, "unit": "%"},
      {"measurement": "Corn plant response rating (crop injury, 0 = no effect, 100 = complete kill) at 1000 g/ha", "setting": "[9]; Zea mays, post-emergence, 240 h, 1000 g ai/ha, Postemergence, 0 to 100 scale", "value": 40, "unit": "%"},
      {"measurement": "pest or weed control at 1000 g/ha", "setting": "[10]; Setaria faberi, post-emergence, 240 h, 1000 g ai/ha, Postemergence, 0 to 100 scale, read-out: Plant response rating, Foxtail, Giant", "value": 90, "unit": "%"},
      {"measurement": "pest or weed control at 1000 g/ha", "setting": "[11]; Bassia scoparia, post-emergence, 240 h, 1000 g ai/ha, Postemergence, 0 to 100 scale, read-out: Plant response rating, Kochia", "value": 50, "unit": "%"},
      {"measurement": "Plant response rating, Pigweed, Redroot", "setting": "[12]; [26]", "value": 40},
      {"measurement": "pest or weed control at 1000 g/ha", "setting": "[13]; Ambrosia artemisiifolia, post-emergence, 240 h, 1000 g ai/ha, Postemergence, 0 to 100 scale, read-out: Plant response rating, Ragweed", "value": 20, "unit": "%"},
      {"measurement": "pest or weed control at 1000 g/ha", "setting": "[14]; Lolium multiflorum, post-emergence, 240 h, 1000 g ai/ha, Postemergence, 0 to 100 scale, read-out: Plant response rating, Ryegrass, Italian", "value": 80, "unit": "%"},
      {"measurement": "plant injury at 1000 g/ha", "setting": "[15]; Triticum aestivum, post-emergence, 240 h, 1000 g ai/ha, Postemergence, 0 to 100 scale, read-out: Plant response rating, Wheat", "value": 0, "unit": "%"},
      {"measurement": "pest or weed control at 1000 g/ha", "setting": "[16]; Galium, post-emergence, 240 h, 1000 g ai/ha, Postemergence, 0 to 100 scale, read-out: Plant response rating, Galium", "value": 90, "unit": "%"},
      {"measurement": "pest or weed control at 250 g/ha", "setting": "[17]; Echinochloa crus-galli, 312 h, read-out: Plant response rating, Barnyardgrass", "value": 0, "unit": "%"},
      {"measurement": "pest or weed control at 250 g/ha", "setting": "[18]; Heteranthera limosa, 312 h, read-out: Plant response rating, Ducksalad", "value": 0, "unit": "%"},
      {"measurement": "plant injury at 250 g/ha", "setting": "[19]; Oryza sativa, 312 h, read-out: Plant response rating, Rice", "value": 0, "unit": "%"},
      {"measurement": "pest or weed control at 250 g/ha", "setting": "[20]; Cyperus difformis, 312 h, read-out: Plant response rating, Sedge, Umbrella", "value": 0, "unit": "%"}
    ]}
  ]
}
